Test results from patent publication US20070128217A1 (priority 2003, published 2007).

Columns and labels:
[1] = system: control sera (pooled serum of ten healthy LUMC hospital workers; commercial negative donor pooled serum from the Dutch bloodbank); type: binding, human; set-up: Binding of Control serum LUMC to linear peptides / Binding of Control serum Blood-bank to linear peptides / Binding of Control serum LUMC to looped peptides / Binding of Control Serum Blood-Bank to Looped peptides / Binding of Control serum LUMC to linear peptides of the protein M of SARS-CoV Urbani / Binding of Control serum Blood-bank to linear peptides of the protein M of SARS-CoV Urbani / Binding of Control serum LUMC to looped peptides of the protein M of SARS-CoV Urbani / Binding of Control Serum Blood-Bank to Looped peptides of the protein M of SARS-CoV Urbani: unit not given here
[2] = system: rabbit serum obtained by immunizing a rabbit with the SARS-CoV strain Frankfurt 1; type: binding; set-up: Binding of a rabbit serum to linear peptides / Binding of a rabbit serum to looped peptides / Rabbit serum linear peptides / Rabbit serum looped peptides / Binding of a rabbit serum to linear peptides of protein N of SARS-CoV Urbani (Rabbit serum linear peptides) / Binding of a rabbit serum to looped/cyclic peptides of protein N of SARS-CoV Urbani (Rabbit serum looped peptides): unit not given here
[3] = system: antibodies in sera from SARS patients (sera 1a, 1b, 2, 6, 37, 62, London, SARS-yellow, SARS-green); type: binding, human; set-up: Binding of serum 6 to linear peptides of protein X1 of SARS-CoV Urbani / Binding of serum 37 to linear peptides of protein X1 of SARS-CoV Urbani / Binding of serum 6 to looped/cyclic peptide (PEPSCAN-ELISA) / Binding of serum 37 to looped/cyclic peptide (PEPSCAN-ELISA) / Binding of serum 37 to looped/cyclic peptides of protein X1 of SARS-CoV Urbani / Binding of serum 6 to linear peptides of protein X2 / Binding of serum 37 to linear peptides of protein X2 / Binding of serum 37 to looped/cyclic peptides of protein X2 of SARS-CoV Urbani / Binding of serum 6 to linear peptides of protein M of SARS-CoV Urbani / Binding of serum 37 to linear peptides of protein M of SARS-CoV Urbani / Binding of serum 6 to looped/cyclic peptides of protein M of SARS-CoV Urbani / Binding of serum 37 to looped/cyclic peptides of protein M of SARS-CoV Urbani / Binding of serum 6 to linear peptides of protein X3 of SARS-CoV Urbani / Binding of serum 37 to linear peptides of protein X3 of SARS-CoV Urbani / Binding of serum 37 to looped/cyclic peptides of protein X3 of SARS-CoV Urbani / Binding of serum 6 to linear peptides of protein X4 of SARS-CoV Urbani / Binding of serum 37 to linear peptides of protein X4 of SARS-CoV Urbani / Binding of serum 37 to looped/cyclic peptides of protein X4 of SARS-CoV Urbani / Binding of serum 6 to linear peptides of protein X5 of SARS-CoV Urbani / Binding of serum 37 to linear peptides of protein X5 of SARS-CoV Urbani / Binding of serum 37 to looped/cyclic peptides of protein X5 of SARS-CoV Urbani / Binding of serum 6 to linear peptides of protein N of SARS-CoV Urbani / Binding of serum 37 to linear peptides of protein N of SARS-CoV Urbani / Binding of serum 6 to linear peptide (PEPSCAN-ELISA) / Binding of serum 1a to looped/cyclic peptides of protein N of SARS-CoV Urbani / Binding of serum 1b to looped/cyclic peptides of protein N of SARS-CoV Urbani / Binding of serum 2 to looped/cyclic peptides of protein N of SARS-CoV Urbani / Binding of serum 6 to looped/cyclic peptides of protein N of SARS-CoV Urbani / Binding of serum 37 to looped/cyclic peptides of protein N of SARS-CoV Urbani / Binding of serum 62 to looped/cyclic peptides of protein N of SARS-CoV Urbani / Binding of serum London to looped/cyclic peptides of protein N of SARS-CoV Urbani / Binding of serum SARS-green to looped/cyclic peptides of protein N of SARS-CoV Urbani: unit not given here

HKLLQTLVLKMLHSS
Binding of Control Serum Blood-Bank to Looped peptides [1]: 0.7
Binding of Control serum Blood-bank to linear peptides [1]: 0.6
Binding of Control serum LUMC to linear peptides [1]: 0.4
Binding of Control serum LUMC to looped peptides [1]: 0.7
Binding of a rabbit serum to linear peptides [2]: 0.2
Binding of a rabbit serum to looped peptides [2]: 0.4
Binding of serum 1a to linear peptides of protein X2 [3]: 0.5
Binding of serum 1a to looped/cyclic peptides of protein X2 of SARS-CoV Urbani [3]: 0.6
Binding of serum 1b to linear peptides of protein X2 [3]: 0.5
Binding of serum 1b to looped/cyclic peptides of protein X2 of SARS-CoV Urbani [3]: 0.6
Binding of serum 2 to linear peptides of protein X2 [3]: 0.4
Binding of serum 2 to looped/cyclic peptides of protein X2 of SARS-CoV Urbani [3]: 0.4
Binding of serum 6 to linear peptides of protein X2 [3]: 0.2
Binding of serum 6 to looped/cyclic peptides of protein X2 of SARS-CoV Urbani [3]: 0.4
Binding of serum 37 to linear peptides of protein X2 [3]: 0.5
Binding of serum 37 to looped/cyclic peptides of protein X2 of SARS-CoV Urbani [3]: 0.5
Binding of serum 62 to linear peptides of protein X2 [3]: 0.5
Binding of serum 62 to looped/cyclic peptides of protein X2 of SARS-CoV Urbani [3]: 0.7
Binding of serum London to linear peptides of protein X2 [3]: 0.4
Binding of serum London to looped/cyclic peptides of protein X2 of SARS-CoV Urbani [3]: 0.3
Binding of serum SARS-green to linear peptides of protein X2 [3]: 0.4
Binding of serum SARS-green to looped/cyclic peptides of protein X2 of SARS-CoV Urbani [3]: 0.3
Binding of serum SARS-yellow to linear peptides of protein X2 [3]: 0.5
Binding of serum SARS-yellow to looped/cyclic peptides of protein X2 of SARS-CoV Urbani [3]: 0.5

HLVDFQVTIAEILII
Binding of Control Serum Blood-Bank to Looped peptides of the protein X3 of SARS-CoV Urbani [1]: 0.9
Binding of Control serum Blood-bank to linear peptides of the protein X3 of SARS-CoV Urbani [1]: 0.8
Binding of Control serum LUMC to linear peptides of the protein X3 of SARS-CoV Urbani [1]: 0.7
Binding of Control serum LUMC to looped peptides of the protein X3 of SARS-CoV Urbani [1]: 0.7
Rabbit serum linear peptides [2]: 0.3
Rabbit serum looped peptides [2]: 0.3
Binding of serum 1a to linear peptides of protein X3 of SARS-CoV Urbani [3]: 0.8
Binding of serum 1a to looped/cyclic peptides of protein X3 of SARS-CoV Urbani [3]: 0.7
Binding of serum 1b to linear peptides of protein X3 of SARS-CoV Urbani [3]: 0.6
Binding of serum 1b to looped/cyclic peptides of protein X3 of SARS-CoV Urbani [3]: 0.4
Binding of serum 2 to linear peptides of protein X3 of SARS-CoV Urbani [3]: 0.7
Binding of serum 2 to looped/cyclic peptides of protein X3 of SARS-CoV Urbani [3]: 0.6
Binding of serum 6 to linear peptides of protein X3 of SARS-CoV Urbani [3]: 0.5
Binding of serum 6 to looped/cyclic peptides of protein X3 of SARS-CoV Urbani [3]: 0.4
Binding of serum 37 to linear peptides of protein X3 of SARS-CoV Urbani [3]: 0.7
Binding of serum 37 to looped/cyclic peptides of protein X3 of SARS-CoV Urbani [3]: 0.6
Binding of serum 62 to linear peptides of protein X3 of SARS-CoV Urbani [3]: 0.6
Binding of serum 62 to looped/cyclic peptides of protein X3 of SARS-CoV Urbani [3]: 0.7
Binding of serum London to linear peptides of protein X3 of SARS-CoV Urbani [3]: 0.6
Binding of serum London to looped/cyclic peptides of protein X3 of SARS-CoV Urbani [3]: 0.2
Binding of serum SARS-green to linear peptides of protein X3 of SARS-CoV Urbani [3]: 0.4
Binding of serum SARS-green to looped/cyclic peptides of protein X3 of SARS-CoV Urbani [3]: 0.2
Binding of serum SARS-yellow to linear peptides of protein X3 of SARS-CoV Urbani [3]: 0.5
Binding of serum SARS-yellow to looped/cyclic peptides of protein X3 of SARS-CoV Urbani [3]: 0.7

HRMCKYTQSTALQEL
Binding of Control Serum Blood-Bank to Looped peptides [1]: 0.8
Binding of Control serum Blood-bank to linear peptides [1]: 0.9
Binding of Control serum LUMC to linear peptides [1]: 0.7
Binding of Control serum LUMC to looped peptides [1]: 0.6
Binding of a rabbit serum to linear peptides [2]: 0.3
Binding of a rabbit serum to looped peptides [2]: 0.4
Binding of serum 1a to linear peptides of protein X2 [3]: 0.9
Binding of serum 1a to looped/cyclic peptides of protein X2 of SARS-CoV Urbani [3]: 0.6
Binding of serum 1b to linear peptides of protein X2 [3]: 0.8
Binding of serum 1b to looped/cyclic peptides of protein X2 of SARS-CoV Urbani [3]: 0.6
Binding of serum 2 to linear peptides of protein X2 [3]: 0.5
Binding of serum 2 to looped/cyclic peptides of protein X2 of SARS-CoV Urbani [3]: 0.4
Binding of serum 6 to linear peptides of protein X2 [3]: 0.5
Binding of serum 6 to looped/cyclic peptides of protein X2 of SARS-CoV Urbani [3]: 1.0
Binding of serum 37 to linear peptides of protein X2 [3]: 0.8
Binding of serum 37 to looped/cyclic peptides of protein X2 of SARS-CoV Urbani [3]: 0.5
Binding of serum 62 to linear peptides of protein X2 [3]: 0.8
Binding of serum 62 to looped/cyclic peptides of protein X2 of SARS-CoV Urbani [3]: 0.6
Binding of serum London to linear peptides of protein X2 [3]: 0.5
Binding of serum London to looped/cyclic peptides of protein X2 of SARS-CoV Urbani [3]: 1.5
Binding of serum SARS-green to linear peptides of protein X2 [3]: 0.8
Binding of serum SARS-green to looped/cyclic peptides of protein X2 of SARS-CoV Urbani [3]: 0.5
Binding of serum SARS-yellow to linear peptides of protein X2 [3]: 0.8
Binding of serum SARS-yellow to looped/cyclic peptides of protein X2 of SARS-CoV Urbani [3]: 0.5

HSSSLTSLLKTHRMC
Binding of Control Serum Blood-Bank to Looped peptides [1]: 0.5
Binding of Control serum Blood-bank to linear peptides [1]: 0.8
Binding of Control serum LUMC to linear peptides [1]: 0.4
Binding of Control serum LUMC to looped peptides [1]: 0.5
Binding of a rabbit serum to linear peptides [2]: 0.2
Binding of a rabbit serum to looped peptides [2]: 0.5
Binding of serum 1a to linear peptides of protein X2 [3]: 0.6
Binding of serum 1a to looped/cyclic peptides of protein X2 of SARS-CoV Urbani [3]: 0.4
Binding of serum 1b to linear peptides of protein X2 [3]: 0.5
Binding of serum 1b to looped/cyclic peptides of protein X2 of SARS-CoV Urbani [3]: 0.4
Binding of serum 2 to linear peptides of protein X2 [3]: 0.3
Binding of serum 2 to looped/cyclic peptides of protein X2 of SARS-CoV Urbani [3]: 0.3
Binding of serum 6 to linear peptides of protein X2 [3]: 0.5
Binding of serum 6 to looped/cyclic peptides of protein X2 of SARS-CoV Urbani [3]: 0.2
Binding of serum 37 to linear peptides of protein X2 [3]: 0.5
Binding of serum 37 to looped/cyclic peptides of protein X2 of SARS-CoV Urbani [3]: 0.3
Binding of serum 62 to linear peptides of protein X2 [3]: 0.6
Binding of serum 62 to looped/cyclic peptides of protein X2 of SARS-CoV Urbani [3]: 0.4
Binding of serum London to linear peptides of protein X2 [3]: 0.5
Binding of serum London to looped/cyclic peptides of protein X2 of SARS-CoV Urbani [3]: 0.2
Binding of serum SARS-green to linear peptides of protein X2 [3]: 0.5
Binding of serum SARS-green to looped/cyclic peptides of protein X2 of SARS-CoV Urbani [3]: 0.3
Binding of serum SARS-yellow to linear peptides of protein X2 [3]: 0.4
Binding of serum SARS-yellow to looped/cyclic peptides of protein X2 of SARS-CoV Urbani [3]: 0.4

HTIDGSSGVANPAMD
Binding of Control Serum Blood-Bank to Looped peptides [1]: 0.3
Binding of Control serum Blood-bank to linear peptides [1]: 0.4
Binding of Control serum LUMC to linear peptides [1]: 0.5
Binding of Control serum LUMC to looped peptides [1]: 0.2
Binding of a rabbit serum to linear peptides [2]: 0.1
Binding of a rabbit serum to looped peptides [2]: 0.4
Binding of serum 1a to linear peptides of protein X1 of SARS-CoV Urbani [3]: 0.7
Binding of serum 1a to looped/cyclic peptides of protein X1 of SARS-CoV Urbani [3]: 0.3
Binding of serum 1b to linear peptides of protein X1 of SARS-CoV Urbani [3]: 0.7
Binding of serum 1b to looped/cyclic peptides of protein X1 of SARS-CoV Urbani [3]: 0.2
Binding of serum 2 to linear peptides of protein X1 of SARS-CoV Urbani [3]: 0.5
Binding of serum 2 to looped/cyclic peptides of protein X1 of SARS-CoV Urbani [3]: 0.1
Binding of serum 6 to linear peptides of protein X1 of SARS-CoV Urbani [3]: 0.5
Binding of serum 6 to looped/cyclic peptides of protein X1 of SARS-CoV Urbani [3]: 0.1
Binding of serum 37 to linear peptides of protein X1 of SARS-CoV Urbani [3]: 0.7
Binding of serum 37 to looped/cyclic peptides of protein X1 of SARS-CoV Urbani [3]: 0.3
Binding of serum 62 to linear peptides of protein X1 of SARS-CoV Urbani [3]: 0.7
Binding of serum 62 to looped/cyclic peptides of protein X1 of SARS-CoV Urbani [3]: 0.2
Binding of serum London to linear peptides of protein X1 of SARS-CoV Urbani [3]: 0.3
Binding of serum London to looped/cyclic peptides of protein X1 of SARS-CoV Urbani [3]: 0.1
Binding of serum SARS-green to linear peptides of protein X1 of SARS-CoV Urbani [3]: 0.6
Binding of serum SARS-green to looped/cyclic peptides of protein X1 of SARS-CoV Urbani [3]: 0.1
Binding of serum SARS-yellow to linear peptides of protein X1 of SARS-CoV Urbani [3]: 0.4
Binding of serum SARS-yellow to looped/cyclic peptides of protein X1 of SARS-CoV Urbani [3]: 0.1
